Paper PMC8582824, “Targeting DDX3X Helicase Activity with BA103 Shows Promising Therapeutic Effects in Preclinical Glioblastoma Models” (Cancers, 2021)

Assays:
Assay type in all cases: cell-based
[1] = test system: U87 and U251 cells; assay: Transwell migration assay in GBM cells; details: 48 h of incubation, vs untreated cells
Method: Exponential growing cells were treated with the inhibitor or vehicle for 48 h and then trypsinized, washed twice with PBS, rinsed in complete medium, incubated at 37 °C for 30 min to reconstitute the membrane structures, washed again for FCS removal, and then added to the upper compartment of collagen-coated (PTFE) Transwell insert (Corning Inc., Corning, NY, USA). Cells were allowed to migrate through coated filters for 6 h. The cells attached on the lower membrane surfaces were stained with 0.1% crystal violet w/v in 0.1 mol/L borate, pH 9.0, and 2% ethanol v/v for 20 min at room temperature. Cells were counted at 400× magnification in standard optical microscopy, and the average number of cells per field in 5 random fields was recorded. Triplicate filters were used, and the experiments were repeated at least two times.
(§1) To better characterize the antiproliferative effect of BA103, we performed further biological evaluation using GBM cell lines. The expression of DDX3X was evaluated in U87 and U251 cell lines by Western blot analysis in comparison with HepG2 cells, resulting in basally detectable mainly in U87 cells (Figure 6A). […] Thus, also according to the importance of β-catenin signaling in GBM, we analyzed whether the expression of β-catenin in U87 and U251 cells could be associated with DDX3X activity. […]

[2] = test system: U87 and U251 cells; assay: Cell cycle analysis in GBM cells; details: after 72 h
Method: […] At the end point, at least 5 × 10^6 cells were harvested, washed with phosphate buffer saline (PBS), and fixed overnight with 70% ethanol. Then, ethanol was removed by centrifugation, and the cells were resuspended in PBS and stained with 50 μg/mL propidium iodide (PI) at 4 °C for 30 min in the dark. Stained cells were analyzed by a Tali image-based cytometer (Life Technologies, Carlsbad, CA, USA) counting 20 fields per sample, and exported fcs raw data were elaborated by Flowing software (v. 2.5.0, by Perttu Terho, University of Turku, Finland).
To better characterize the antiproliferative effect of BA103, we performed further biological evaluation using GBM cell lines. The expression of DDX3X was evaluated in U87 and U251 cell lines by Western blot analysis in comparison with HepG2 cells, resulting in basally detectable mainly in U87 cells (Figure 6A). […] Cell cycle experiments were performed in normal conditions (CTR) and in the presence of BA103 at 1 µM and 10 µM concentrations for 48 h and 72 h. […] Thus, also according to the importance of β-catenin signaling in GBM, we analyzed whether the expression of β-catenin in U87 and U251 cells could be associated with DDX3X activity. GBM cells were treated with BA103 for 48 h, and then, β-catenin expression was evaluated by Western blot analysis and immunofluorescence analysis (Figure 7A,B, respectively). […]

[3] = test system: DDX3X; assay: DDX3X protein expression by Western blot in GBM cells; details: 24 h of treatment
Method: Cells were incubated for 15 min in lysis buffer containing 1% triton, 0.1% SDS, 2 mmol/L CaCl2, 10 mg/mL orthovanadate, and 1× protease inhibitors cocktail (Sigma-Aldrich, St. Louis, MO, USA). Forty micrograms of proteins were electrophoresed in 12% SDS-polyacrylamide gel, and then, the gel was placed onto a Trans-Blot Turbo mini nitrocellulose transfer pack and transferred using a Trans-Blot Turbo Transfer System (Bio-Rad Laboratories, Hercules, CA, USA). The membrane was incubated with […] primary antibody and then with […] horseradish peroxidase (HRP)-conjugated secondary antibodies (Santa Cruz Biotechnology, Dallas, TX, USA). […]
as §1, with “activity. GBM cells were treated with BA103 for 48 h, and then, β-catenin expression was evaluated by Western blot analysis and immunofluorescence analysis (Figure 7A,B, respectively).” for “activity.”

[4] = test system: DU-145; assay: MTS cytotoxicity assay, DU-145 cells; details: DU-145, 72 h
Method: For CellTiter 96® Aqueous One Solution Cell Proliferation Assay (MTS) (Promega, Madison, WI, USA), cells were seeded at 5 × 10^3 per well in 96-well plates in quadruplicate together a control with no cells to evaluate the background. After 24 h, the culture medium was removed, and fresh medium containing increasing concentrations of chemical compounds was added to cells. The fixed final concentrations were 0.1 μM, 1 μM, 10 μM, and 100 μM. DMSO was the vehicle used for dilution of the compounds, and its final concentration on cells was less than 0.2%. Medium-only containing wells were included as controls. […] After 3 h at 37 °C in a humidified, 5% CO2 atmosphere, the absorbance at 492 nm was recorded using an EZREAD400 (Biochrom, Cambridge, United Kingdom) plate reader. The average 490 nm absorbance from the “no cell” control wells was subtracted from all other values to yield background-corrected absorbance. Dose–response curves and CC50 values have been calculated by plotting the absorbance data as a function of inhibitor concentrations and fitting the data by least-squares nonlinear regression, according to the method of Marquardt–Levenberg, with the computer program GraphPad Prism 6.0.
Cells were incubated with a scalar concentration of DDX3X inhibitors, and after 72 h of treatment, cell viability was assessed by cytotoxicity assay. […]

## CCCCc1cn(-c2ccc(NC(=O)Nc3ccccc3C(F)(F)F)cc2)nn1 [BA103, 1-(4-(4-Butyl-1H-1,2,3-triazol-1-yl)phenyl)-3-(2-(trifluoromethyl)phenyl)urea]
[1]
  migration through collagen-coated Transwell filters: reduced ability to migrate
[2]
  cell cycle distribution: significant accumulation of cells in the G0/G1 phase
[3]
  expression of DDX3X: reduction in the expression of DDX3X
[4]
  CC50: low micromolar range
